This note sets out measurements from article PMC10281321, “Discovery of an effective anti-inflammatory agent for inhibiting the activation of NF-κB” (Journal of Enzyme Inhibition and Medicinal Chemistry, 2023).

“Also recorded” adds a separate entry of the source.

Data set [1] has as its system LPS-stimulated RAW264.7 cells. Kind of data set: NO release inhibition in LPS-stimulated RAW264.7 cells (Griess reagent). The data set is classed as cell-based. The note with it: for IC50: Mus musculus, LPS-stimulated RAW264.7 cells, Griess Reagent; for anti-inflammatory activity (in words): SAR summary covering NO release and NF-κB reporter inhibition. The procedure:
After incubated for 24 hours, cells were treated with tested compounds for different
concentrations(3.125,6.25,12.5,25 and 50μM) for 1 h, and then treated with 1 μg/mL LPS
for further 24 h. The supernatants were collected and NO level was measured using
Griess reagent (Beyotime, China). […]

Another data set has as its system NF-κB. The data set can be described thus: NF-κB transcriptional activity dual-luciferase reporter assay, TNF-α stimulated. Type of data set: cell-based. The note with it: HEK293T cells transfected with NF-κB reporter plasmid, stimulated by TNF-α. The method, then:
(§1) 4.5. NF-κB transcriptional activity assay
HEK293T cells were seeded into 96 well plate at a density of 1×10^5 cells per well. After incubated for 24 hours, cells were transfected with NF-κB reporter plasmid at 100 ng/well using lip2000.Six hours later, the medium was replaced by fresh medium containing tested compounds with different concentrations. Then incubated for another hour, TNF-α was added for a final concentration at 10 ng/mL.12 hours later, the cell lysate was collected and the RLU was measured by microplate reader. […]

The nature of data set [2]: Cytotoxicity by MTT assay. Type of data set: cell-based.
The subject of a further data set is NF-κB p65 and IκBα. The data set can be described thus: Western blot of LPS-induced phosphorylation of p65 and IκBα in RAW264.7 cells. The data set is classed as cell-based. The settings on record: compound 4, 2, 1 μM 1 h, then LPS 1 μg/mL 30 min, WB. The method, then: (§2) RAW264.7 cells were seeded into 6 well plate at a density of 1.5×10^6 per well and incubated at 37 C in 5% CO2 about 24 h. RAW264.7 cells were pretreated with compound (4, 2, 1 μM) for 1 h, then treated with LPS (1 μg/mL) for 30 min. The cells were lysed in 300 μL RIPA cell lysis buffer and the samples were analyzed by WB. […] All antibodies were purchased from ZENBIO. […]

Data set [3] relates to RELA (p65) and NFKB1 (p50) subunits of NF-κB. Kind of data set: Western blot of TNFα-induced nuclear translocation of p65 and p50 in HEK293T cells. The note with it: compound 4, 2, 1 μM 1 h, then TNF-α 12 h, nuclear protein WB. The data set is classed as cell-based. The procedure:
HEK293T cells were seeded into 6 well plate at a density of 1.5×10^6 cells per well and incubated at 37°C in 5% CO2 about 24 h. HEK293T cells were pretreated with compound (4, 2, 1 μM) for 1 h, then treated with TNF-α (1 μg/mL) for 12 h. The nuclear protein was extracted by Nuclear protein extraction kit(Beyotime).The samples were analyzed by WB.
All antibodies were purchased from ZENBIO. […]

The next data set deals with MAPKs (P38, JNK and ERK). Kind of data set: Western blot of LPS-regulated MAPK signalling activation in RAW264.7 cells. The note with it: LPS stimulated, WB. The data set is classed as cell-based. The procedure: as §2
In another data set the test system is iNOS and COX-2. The data set can be described thus: Western blot of iNOS and COX-2 expression in LPS-stimulated RAW264.7 cells. Type of data set: cell-based. The settings on record: compound 1 h then LPS 24 h, WB. The method, then:
RAW264.7 cells were seeded into 6 well plate at a density of 1.5×10^6 per well and incubated at 37 C in 5% CO2 about 24 h. RAW264.7 cells were pretreated with […]
were lysed in 300 μL RIPA cell lysis buffer and the samples were analyzed by WB. […] All antibodies were purchased from ZENBIO. […]

The next data set relates to TNF-α and IL-6. The data set can be described thus: TNF-α and IL-6 assay (ELISA) in LPS-stimulated RAW264.7 cells. The note with it: 1 μg/mL LPS 24 h, supernatant ELISA. Type of data set: cell-based. The procedure:
4.6. TNF-α and IL-6 assay
(§3) RAW264.7 cells were seeded into 6 well plate at a density of 1.5×10^6 cells per well. After incubated for 24 hours, cells were treated with different concentrations of compound and stimulated by 1 μg/mL LPS after one hour.24 hours later, the supernatant was collected and measured by ELISA kits(MultiScience). […]

The subject of a further data set is RAW264.7 cells. Kind of data set: Reactive oxygen species (ROS) assay in LPS-stimulated RAW264.7 cells. Type of data set: cell-based. The settings on record: 1 μg/mL LPS 24 h, DCFH-DA. The method, then: […]
as §1
HEK293T cells were seeded into 96 well plate at a density of 1×10^5 cells per well. After incubated for 24 hours, cells were transfected with NF-κB reporter plasmid at 100 ng/well using lip2000.Six hours later, the medium was replaced by fresh medium containing tested compounds with different concentrations. Then incubated for another hour, TNF-α was added for a final concentration at 10 ng/mL.12 hours later, the cell lysate was collected and the RLU was measured by microplate reader.
4.6. […]
as §3
stimulated by 1 μg/mL LPS after one hour.24 hours later, cells were collected and washed by PBS for three times. […] Cell samples were incubated for 20 min at 37°C,and then the fluorescence intensity measured by microplate reader using Ex λ 488 nm and Em λ 525 […]

Data set [4] relates to LPS-induced inflammation model of mice. Kind of data set: LPS-induced inflammation model in vivo. Also on record: species or system C57BL/6 mice. The method, then:
All antibodies were purchased from ZENBIO.
4.9 Establishment of LPS-induced inflammation models in vivo
The 30 male C57BL/6 mice weighing 18-22 g were purchased from Animal Department of Anhui Medical University. After adaptive feeding for a week, mice were randomly divided into five groups on average, including the control group, LPS group, compound 51 (5,10,20 mg/kg) +LPS group. Before received 20 mg/kg LPS by intraperitoneal injection, mice were gavaged for three days of compound 51. 6 hours after received LPS, the blood and tissues were taken from mice. The levels of IL-6, TNF-α, SOD and MDA

Setting [5] is: compound 51 5,10,20 mg/kg gavaged, LPS i.p.
The mark [6] stands for this setting: compound 51 5,10,20 mg/kg gavaged, LPS i.p., ELISA.

Turning to `CC(=O)Nc1ccc(NC(=O)c2cc(-c3ccc(F)cc3)cnc2N)cc1` [Compound 38], the IC50 was 13.7 ± 1.8 µM in data set [1]; 0.827 ± 0.0186 µM in the data set on NF-κB (Homo sapiens, HEK-293T); greater than 50 µM in [2].
Turning to `CC(=O)Nc1ccc(NC(=O)c2cc(-c3cccc(F)c3)cnc2N)cc1` [Compound 39], the IC50 in data set [1] was greater than 50 µM; with NF-κB (Homo sapiens, HEK-293T), greater than 2 µM; in data set [2], greater than 50 µM.
For `CC(=O)Nc1ccc(NC(=O)c2cc(-c3ccc(C(F)(F)F)cc3)cnc2N)cc1` [Compound 40], the half-inhibitory concentration (IC50) was 26.5 ± 3 µM in [1]; greater than 2 µM with NF-κB (Homo sapiens, HEK-293T); greater than 50 µM in data set [2].
The matching figures for `CC(=O)Nc1ccc(NC(=O)c2cc(-c3cccc(C(F)(F)F)c3)cnc2N)cc1` [Compound 41]: 8.4 ± 1.7 µM, 0.307 ± 0.0214 µM and greater than 50 µM.
As for `CC(=O)Nc1ccc(NC(=O)c2cc(-c3ccccc3C(F)(F)F)cnc2N)cc1` [Compound 42], the IC50 in data set [1] was 14.6 ± 2.3 µM; in the data set with NF-κB (Homo sapiens, HEK-293T) it was 1.01 ± 0.0184 µM; in data set [2], greater than 50 µM.
For `CC(=O)Nc1ccc(NC(=O)c2cc(-c3ccc(O)cc3)cnc2N)cc1` [Compound 43], the IC50 was greater than 50 µM in data set [1]; greater than 2 µM in the data set on NF-κB (Homo sapiens, HEK-293T); greater than 50 µM in [2].
Regarding `CC(=O)Nc1ccc(NC(=O)c2cc(-c3cccc(O)c3)cnc2N)cc1` [Compound 44], the IC50 is greater than 50 µM in data set [1]; greater than 2 µM in the data set with NF-κB (Homo sapiens, HEK-293T); greater than 50 µM in [2].
With `CC(=O)Nc1ccc(NC(=O)c2cc(-c3ccccc3O)cnc2N)cc1` [Compound 45], the IC50 in data set [1] is greater than 50 µM; in the data set with NF-κB (Homo sapiens, HEK-293T), greater than 2 µM; in data set [2] it was greater than 50 µM.
For `CC(=O)Nc1ccc(NC(=O)c2cc(-c3ccc(C#N)cc3)cnc2N)cc1` [Compound 46], the IC50 in [1] was greater than 50 µM; in the data set on NF-κB (Homo sapiens, HEK-293T), greater than 2 µM; in [2] it was greater than 50 µM.
For the compound `CC(=O)Nc1ccc(NC(=O)c2cc(-c3cccc(C#N)c3)cnc2N)cc1` [Compound 47], the IC50 in [1] is 28.9 ± 2.1 µM; in the data set with NF-κB (Homo sapiens, HEK-293T), greater than 2 µM; in [2], greater than 50 µM.
As to `CC(=O)Nc1ccc(NC(=O)c2cc(-c3ccccc3C#N)cnc2N)cc1` [Compound 48], the half-inhibitory concentration (IC50) in data set [1] is greater than 50 µM; in the data set with NF-κB (Homo sapiens, HEK-293T), greater than 2 µM; in data set [2], greater than 50 µM.
`CC(=O)Nc1ccc(NC(=O)c2cc(-c3ccc(C=O)c(C)c3)cnc2N)cc1` [Compound 49]: the 50% inhibitory concentration (IC50) is greater than 50 µM in [1]; greater than 2 µM in the data set on NF-κB (Homo sapiens, HEK-293T); greater than 50 µM in data set [2].
Take `CC(=O)Nc1ccc(NC(=O)c2cc(-c3ccc(F)c(C)c3)cnc2N)cc1` [Compound 50]: the IC50 in data set [1] was 8.6 ± 1.9 µM; in the data set on NF-κB (Homo sapiens, HEK-293T), 0.577 ± 0.0216 µM; in [2], greater than 50 µM. In [1], the “anti-inflammatory activity (in words)” value was “superior anti-inflammatory activity”.
Turning to `CC(=O)Nc1ccc(NC(=O)c2cc(-c3ccc(N)cc3Cl)cnc2N)cc1` [Compound 51], in data set [1], the IC50 came out at 3.1 ± 1.1 µM and the “anti-inflammatory activity (in words)” value is “superior anti-inflammatory activity”. In the data set on NF-κB, the IC50 was determined as 0.172 ± 0.0114 µM. In the data set with NF-κB (Homo sapiens, HEK-293T), this compound showed a half-maximal inhibitory concentration (IC50) of 0.173 µM. Further, in data set [2], the IC50 is greater than 50 µM and the “cytotoxicity (in words)” value is “did not show obvious cytotoxicity”. Also, in the data set with NF-κB p65 and IκBα, the “LPS-induced phosphorylation of IκBα” value is listed as “suppressed significantly in a dose dependent manner” and the “LPS-induced phosphorylation of p65” value was “suppressed significantly in a dose dependent manner”. In data set [3], the “TNFα-induced nuclear translocation of p50” value is “inhibited by compound in a dose dependent manner” and the “TNFα-induced nuclear translocation of p65” value is given as “inhibited by compound in a dose dependent manner”. In the data set on MAPKs (P38, JNK and ERK), the “phosphorylation of ERK” value is reported as “significantly decreased”, the “phosphorylation of JNK” value is “significantly decreased” and the “phosphorylation of P38” value is “significantly decreased”. In addition, in the data set on iNOS and COX-2, the “expression of COX-2” value is given as “decreased significantly” and the “expression of iNOS” value is on record as “decreased significantly”. In addition, in the data set with TNF-α and IL-6, the “level of IL-6” value is “decreased the levels of TNF-α and IL-6 significantly in a dose dependent manner”; the “level of TNF-α” value was “decreased the levels of TNF-α and IL-6 significantly in a dose dependent manner”. Moreover, in the data set on RAW264.7 cells, the “level of ROS” value was “decrease the level of ROS obviously”. Besides, the “activation of NF-κB in splenic organ” value in [4] (LPS i.p., spleen WB) is given as “suppressed the activation of NF-κB in splenic organ”. The “injury of spleen (HE staining)” value in data set [4] (compound 51 5,10,20 mg/kg gavaged three days before LPS i.p.) is “alleviated these injury in a dose-dependent manner”. For the same compound, in [4] (compound 51 5,10,20 mg/kg gavaged three days before LPS i.p., 6 hours after LPS), the “gastric distention and splenomegaly” value is “these symptoms were relieved”. In addition, in data set [4] (setting [5]), the “MDA activity in blood” value was “reversed their activity; also recorded: decreased MDA activity” and the “SOD activity in blood” value is on record as “reversed their activity; also recorded: increased SOD activity”. Also, in [4] (setting [6]), the “IL-6 level in blood” value is “decreased obviously” and the “TNF-α level in blood” value is reported as “decreased obviously”.
On to `COc1ccc(-c2cnc(N)c(C(=O)Nc3ccc(NC(C)=O)cc3)c2)c(F)c1` [Compound 52], for which the IC50 was greater than 50 µM in data set [1]; 1.42 ± 0.0247 µM with NF-κB (Homo sapiens, HEK-293T); greater than 50 µM in [2].
